The values below come from patent publication US20230203031A1, “COMPOUNDS USEFUL FOR INHIBITING CDK7” (Eli Lilly and Company, priority 2020, published 2023).

Read-outs that look alike come from different tables or passages of the source.

The target in one test is CDK9/cyclinT1 (Homo sapiens, UniProt P50750). The test is described as follows: Assay for inhibition of CDK9/CyclinT1 kinase activity (radiolabel filter binding). The settings on record: IC50 for CDK9 (3 hours preincubation), 100 µM ATP.
Chain of CDK9/cyclinT1 (P50750 whole entry, the tested form may be a part): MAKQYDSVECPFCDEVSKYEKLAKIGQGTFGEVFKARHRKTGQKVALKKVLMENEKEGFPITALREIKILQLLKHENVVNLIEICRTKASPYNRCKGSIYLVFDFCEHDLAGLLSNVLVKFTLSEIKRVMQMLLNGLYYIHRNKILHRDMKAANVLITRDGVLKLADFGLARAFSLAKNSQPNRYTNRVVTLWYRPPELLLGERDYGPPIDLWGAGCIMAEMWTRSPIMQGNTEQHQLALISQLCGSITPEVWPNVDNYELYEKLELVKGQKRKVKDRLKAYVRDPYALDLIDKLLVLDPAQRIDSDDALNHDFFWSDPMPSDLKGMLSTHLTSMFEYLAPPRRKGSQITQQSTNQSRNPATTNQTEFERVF
Chain of CDK9/cyclinT1 (O60563 whole entry partner, the tested form may be a part): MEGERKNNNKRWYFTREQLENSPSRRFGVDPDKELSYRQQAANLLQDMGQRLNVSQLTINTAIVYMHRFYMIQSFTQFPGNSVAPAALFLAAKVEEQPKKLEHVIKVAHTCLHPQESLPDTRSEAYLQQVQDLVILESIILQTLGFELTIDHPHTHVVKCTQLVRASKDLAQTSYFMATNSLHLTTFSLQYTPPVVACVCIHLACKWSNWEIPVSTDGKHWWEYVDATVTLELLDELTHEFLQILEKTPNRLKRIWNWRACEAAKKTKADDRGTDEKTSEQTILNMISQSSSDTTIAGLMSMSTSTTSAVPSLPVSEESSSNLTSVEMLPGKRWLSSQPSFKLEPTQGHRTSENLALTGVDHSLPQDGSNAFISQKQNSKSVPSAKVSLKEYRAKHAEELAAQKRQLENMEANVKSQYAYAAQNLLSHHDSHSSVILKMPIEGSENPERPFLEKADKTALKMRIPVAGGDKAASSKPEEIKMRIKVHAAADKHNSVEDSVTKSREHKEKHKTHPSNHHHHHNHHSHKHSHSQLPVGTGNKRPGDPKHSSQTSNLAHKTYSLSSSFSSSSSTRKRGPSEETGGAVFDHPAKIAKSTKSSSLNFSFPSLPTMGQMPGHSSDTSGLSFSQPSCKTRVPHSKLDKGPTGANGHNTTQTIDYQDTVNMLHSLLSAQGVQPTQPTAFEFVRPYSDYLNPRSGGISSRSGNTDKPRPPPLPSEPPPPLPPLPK
Test [1] relates to pCTD Ser5 in HCT116 cells. The test is described as follows: Phospho-carboxyl terminal domain (Ser5) p-CTD (S5) cell based Acumen assay. To be noted: read-out: Relative IC50 for pCTD Ser5. On the procedure: HCT116 cells (ATCC CCL-247) are cultured in McCoy’s 5A Medium Modified media supplemented with 10% FBS, 1% NaPyr, and 1% Pen/Strep and plated (prior to becoming 70% confluent) in 96-well flat-bottom plates at a density of 5,000 cells per well in 100 µL volume. The cells are incubated overnight in a cell culture incubator (5% CO2, 95% Relative Humidity (RH), and 37° C.) and allowed to attach to the plate. The following morning, the cells are dosed with compounds. Compound inhibitors are solubilized at 60 µM in culture medium containing 0.6% DMSO. Subsequently compound serial dilutions (1:3) are prepared over a 60 µM to 0.003 µM range. Cells are dosed with the addition of 50 µL from serial dilution plate to assay plate containing cell attached with 100 µL of media producing a final DMSO concentration of 0.2% with a final compound concentration dose range between 20 and 0.001 µM. For max point media containing 0.2% of DMSO is used and for min point, a reference compound diluted at 0.83 µM final concentration in the growth media containing 0.2% DMSO is used. After dosing with compounds, the cell plates are incubated at 37° C. and 5% CO2 for 4 hours. Growth media is removed carefully and the cells are fixed by adding 100 µL of 4% para-formaldehyde for 30 minutes at RT. Cell are washed once with PBS and incubated with 100 µL of cold MeOH for 15 minutes at RT for cell permeation. Again cells are washed twice with PBS (100 µL/each) and blocked with 100 µL/well of 1% BSA/PBS for 30 min at RT. 50 µL of 1:1000 primary antibody (Anti-phosphoCTD Ser5 Bethyl Laboratories cat# A300-655A) dilution in 1% BSA/PBS are added per well, the plates are sealed and incubated overnight at 4° C.
The following day cells are washed three times with PBS (100 µL/well) and incubated with 50 µL/well of secondary antibody (1:2000 dilution, Goat anti-rabbit IgM ALEXA FLUOR™ 488) in PBS for 1 hourr at room temperature. After washing 3× with PBS (100 µL/well), 100 µL, of 50 µg/mL RNAase (Sigma) and 1:1000 propidium iodide dilution in PBS are added per well. Plates are sealed and incubated for 1 hour at RT on the bench (preserved from light). Plates are analyzed on Acumen on FL2 (mean intensity), and FL3 (total intensity). Fluorescence plates are scanned with ACUMEN EXPLORER™ [Laser-scanning fluorescence microplate cytometer manufactured by TTP LABTECH LTD] to measure anti-phospho-carboxyl terminal domain at Serine 5 (pCTD). Image analysis is based on cellular fluorescent signals for identifying positive cells. pCTD (S5) positive cells are identified by mean intensity at 500-530 above the threshold. Total intensity at 575-640 from propidium iodide/DNA is used to identify individual cells. Assay output is % pCTD positive cells. The IC50 is determined by curve fitting to a four parameter logistic for each output using GENE DATA™.

Test [2] concerns panel of 468 human kinases. The test is described as follows: DiscoverX KINOMEscan selectivity profiling, 468 kinase panel. It is filed as binding. The settings on record: CDK7 the only kinase with less than 35% control activity at 0.2 µM. As for the experimental part: The purpose of the study is to generate an in vitro selectivity profile of the compounds of Example 8. To address selectivity, the compound of Example 8 is tested in a panel of 468 human kinases at DiscoverX Corporation using the KINOMEscan™ screening platform. KINOMEscan™ employs a novel and proprietary active site-directed competition binding assay to quantitatively measure interactions between test compounds and more than 450 human kinases and disease relevant mutant variants.
Compounds that bind the kinase active site and directly (sterically) or indirectly (allosterically) prevent kinase binding to an immobilized ligand, will reduce the amount of kinase captured on the solid support. […] Compound activity is monitored by measuring the amount of kinase captured in test versus control samples by using a qPCR method that detects the associated DNA label. Further information regarding the DiscoverX Corporation KINOMEscan™ screening platform can be found at http://www.discoverx.com.
Assays to monitor binding to a 468 kinase panel were conducted at DiscoverXⓇ Corporation (Fremont, CA). Example 8 is tested at 20 µM, 2 µM, and 0.2 µM final concentrations. Kinases are tagged with DNA for qPCR detection. […] The kinase concentration in the eluates is measured by qPCR. […]

Protocol for CDK9/cyclinT1: The purpose of these assays is to measure the ability of the compounds described herein to inhibit CDK7/CyclinH/Mat1 complex kinase activity. […] The IC50 determination for CDK7 and CDK9 are determined as follows.
The IC50 activity of the compounds described herein is determined using radiolabel filter binding (FB) assays using the purified human recombinant enzyme in the presence of ATP and peptide substrate. The ATP concentrations chosen are at or near the enzyme Km for ATP. Reactions are carried out in 96 well polystyrene plates in a final volume of 25 µL per well. 5 µL of test compound in 20% DMSO, 10 µL of substrate solution (ATP//[^33P]ATP and CDK7/9 tide) and 10 µL of enzyme solution are mixed. […] The enzyme solution is prepared for a final concentration of 7.5 nM CDK9/cyclinTl enzyme [Proqinase 0371-0345-1 (Lot 004)] diluted in kinase buffer. Test compounds are serially diluted 1:3 in 20% DMSO to create a 10 point curve at a starting concentration of 20 µM. 20% DMSO buffer alone without test compound is employed as high control (full activity in the absence of any inhibitor), 500 mM EDTA is used to determine the level of background in the absence of enzyme activity (low control). After mixing 5 µL of compounds with 10 µL of enzyme solution, the plate is incubated for 0 or 180 minutes at 22° C. After that time, the reaction is initiated by the addition of 10 µL substrate solution and incubated for 60 minutes at 22° C. The reaction is terminated by the addition of 80 µL of cold 10% orthophosphoric solution. Filter plates (opaque, non-sterile filter plates) are prewashed with 10 µL of 10% orthophosphoric solution per well. 100 µL of the mixture are transferred to a phosphocellulose filter and incubate at room temperature for 45 minutes. Filter plates are washed with 200 µL 0.5 % orthophosphoric acid 3 times on a filter plate processor. 80 µL of MICROSCINT™ is added to each well and read on a scintillation counter after an hour. Data is processed through a [sequence]-[sequence]Ⓡ tool. Data is analyzed using a 4-parameter nonlinear logistic equation (four-parameter logistic concentration-response curve): Y = bot + [(top-bot)/1+(x/ IC50)Slope] where Y = % inhibition, X = concentration yielding y% inhibition, Bottom = minimum value of y attained by curve, Top = maximum value of y attained by curve and Slope = steepness of curve at IC50. %Inh = [(median Max- x/ median Max - median Min)] . 100 IC50: concentration of compound that reduces a given response (ligand binding, enzyme response) by 50%. IC50 relative: concentration giving half the compound’s maximum response.

With `C=CC(=O)N1CCO[C@H](CN2CCC(Nc3cc(C(C)F)cn4c(C(C)C)cnc34)CC2)C1` (single isomer, unassigned) [Example 2], the IC50 at CDK9/cyclinT1 worked out at 3180 nM; in test [1] (4 hours), 162 nM.

`C=CC(=O)N1CCO[C@H](CN2CCC(Nc3cc(C(C)O)cn4c(C(C)C)cnc34)CC2)C1` (single isomer, unassigned) [Example 4]: the IC50 at CDK9/cyclinT1 amounted to 8050 nM; in test [1] (4 hours) it was 55.1 nM.

Regarding `C=CC(=O)N1CCO[C@H](CN2CCC(Nc3cc(C(C)O)cn4c(C(C)C)cnc34)CC2)C1` (single isomer, unassigned) [Example 5], the IC50 at CDK9/cyclinT1 was determined as 7130 nM; in test [1] (4 hours), 118 nM.

Turning to `C=CC(=O)N1CCO[C@H](CN2CCC(Nc3cc(C(C)F)cn4c(C(C)C)cnc34)CC2)C1` (single isomer, unassigned) [Example 1], the 50% inhibitory concentration (IC50) on CDK9/cyclinT1 stood at 1770 nM; in test [1] (Homo sapiens, HCT-116, 4 h), 161 nM.

Regarding `C=CC(=O)N1CCO[C@H](CN2CCC(Nc3cc(C(F)(F)F)cn4c(C(C)C)cnc34)CC2)C1` [Example 8, 1-[(2R)-2-[[4-[[3-isopropyl-6-(trifluoromethyl)imidazo[1,2-a]pyridin-8-yl]amino]-1-piperidyl]methyl]morpholin-4-yl]prop-2-en-1-one], the IC50 on CDK9/cyclinT1 is 2140 nM; in test [1] (Homo sapiens, HCT-116, 4 h) it was 26.2 nM. Also, in test [2], the “selectivity against the 468 protein kinases panel” value was “excellent selectivity”.

Consider `[2H]CC([2H])(C)c1cnc2c(NC3CCN(C[C@@H]4CN(C(=O)C=C)CCO4)CC3)cc(C(F)(F)F)cn12` (mixture of isomers) [Example 7, 1-[(2R)-2-[[4-[[3-[rac-1,2-dideuterio-1-methyl-ethyl]-6-(trifluoromethyl)imidazo[1,2-a]pyridin-8-yl]amino]-1-piperidyl]methyl]morpholin-4-yl]prop-2-en-1-one], for which the IC50 at CDK9/cyclinT1 was 2030 nM; in test [1] (Homo sapiens, HCT-116, 4 h) it was 71.7 nM.

For `[2H]C([2H])=C([2H])C(=O)N1CCO[C@H](CN2CCC(Nc3cc(C(F)(F)F)cn4c(C(C)C)cnc34)CC2)C1` [Example 6, 2,3,3-trideuterio-1-[(2R)-2-[[4-[[3-isopropyl-6-(trifluoromethyl)imidazo[1,2-a]pyridin-8-yl]amino]-1-piperidyl]methyl]morpholin-4-yl]prop-2-en-1-one], the IC50 on CDK9/cyclinT1 amounted to 1610 nM; in test [1] (Homo sapiens, HCT-116, 4 h) it was 15.9 nM.
